Consider two compounds from patent publication US20250123282A1, “METHODS FOR EVALUATION AND TREATMENT OF TYROSINE KINASE INHIBITOR (TKI)-RESISTANT ACUTE MYELOID LEUKEMIA” (LOMA LINDA UNIVERSITY, priority 2021, published 2025).

One assay concerns MV4-11 cells. The assay can be described thus: Human cytokine proteome profile array of cell-free supernatants from GILT-treated MV4-11. It counts as cell-based. The note with it: 80 nM GILT, MV4-11, vs non-treatment control. How it is done: (§1) To identify the protein(s) responsible for initiation of the survival mechanism and subsequent proliferation of AML blasts, human cytokine proteome profile arrays of cell-free supernatants from GILT-treated MV4-11's cultures were performed. […] Under the no treatment (No Tx) condition, MV4-11 releases numerous cytokines such as MIF in their supernatant; however, one dose of GILT-treatment eliminated release of a variety of cytokines such as osteopontin (arrows, FIG. 7A), a protein closely associated with adverse prognosis in AML patients. Next, bone marrow mononuclear cells (BMMNC) from AML patients were treated for 3 days ex vivo.
Proteomics and Blotting Analysis. Three days after the one dose treatment, the cell-free supernatants were collected for human cytokine profile assay. The Human XL Cytokine Array Kit (Catalog #ARY022B, R&D) was used according to the manufacturer's procedures and exposed to X-ray film (<10 minutes). Profiles of mean spot pixel density were created using a transmission-mode scanner and Image J analysis software.

For a further assay, the system named is primary AML BMMNC. The assay can be described thus: Human cytokine proteome profile array of cell-free supernatants from treated primary AML BMMNC. In kind it is cell-based. The note with it: 80 nM GILT, 3 days ex vivo, Patient #1 and #2, vs non-treated control. How it is done:
as §1
Human Samples. AML bone marrow (BM) mononuclear cells (BMMNC) (Patients #1-7, Table 4) were obtained from the City of Hope National Medical Center (COHNMC). All donor patients signed an informed consent form. Sample acquisition was approved by the Institutional Review Boards at the LLUMC and the COHNMC in accordance with an assurance filed with and approved by the Department of Health and Human Services, and it met all requirements of the Declaration of Helsinki.
For MIF in vitro experiments, different doses of MIF were added to 1 ml of 1×10^6 MV4-11 cells or RAW264.7 cells for each experimental group in 24-well plates. Two days after the one dose treatment, cells were then collected for either analyses by FACS and qPCR. […]

In a further assay the test system is MOLM-14 cells. The assay can be described thus: Phase-bright imaging of re-growth of TKI-treated MOLM-14. It counts as cell-based, human. The note with it: 10 days after TKI treatment. From the text:
To follow the cell fate of TKI-treated MV4-11 and MOLM-14, culturing of blasts were continued by performing medium change every 2-3 days. […] The BAD protein is a pro-apoptotic member of the BCL-2 gene family, which is involved in initiating apoptosis. Dephosphorylated BAD is pro-apoptotic by binding BCL-2 and inactivating BCL-2, while phosphorylated BAD (pBAD) is anti-apoptotic by leaving BCL-2 free to inhibit BAX-triggered apoptosis.
Small Molecular Inhibitors and in vitro & ex vivo Treatment. […] The dose of 80 nM for the four TKIs was selected based on their dose-dependent cytotoxicity in previous reports. […] Both GILT and QUIZ were reported to start to suppress the tumorigenic clustering and c-Kit at the dose of 80 nM. […] The combination of 5 μM 5-Azacitidine (AZA) and 80 nM 1α,25-Dihydroxyvitamin D3 (VD3) was added to the experimental group similar to the previous report. As combination agents to treat blasts in vitro, one dose of 80 nM GILT with one dose of either 100 nM Venetoclax (BCL2 inhibitor), 10 μM (R)-Lisofylline (STAT4 inhibitor), 100 nM AZD1208 (PIM inhibitor), 500 nM PF-06826647 (TYK2 inhibitor), or 500 nM AT9283 (JAK2/3 inhibitor) were added to 1 ml of 1×10^6 cells for each experimental group in 24 well plates. Three days after the one dose treatment, cells were then collected for either analyses by FACS and qPCR, or re-plated into 24 well plates for continued culture. […]

For a further assay, the system named is MV4-11. The following applies: cited from earlier work.

As to `CCc1nc(C(N)=O)c(Nc2ccc(N3CCC(N4CCN(C)CC4)CC3)c(OC)c2)nc1NC1CCOCC1` [GILT, Gilteritinib], in the assay on MV4-11 cells, the “MIF increase in the supernatant (mean pixel density)” value was 2.6 fold. In the assay on primary AML BMMNC, the “MIF release increase in the supernatant” value is given as 2.1 fold.

For `CC(C)(C)c1cc(NC(=O)Nc2ccc(-c3cn4c(n3)sc3cc(OCCN5CCOCC5)ccc34)cc2)no1` [QUIZ, Quizartinib], the “re-growth / tumorigenic clusters of MOLM-14” value in the assay with MOLM-14 cells is given as “few newly formed tumorigenic clusters”. For the same compound, the “dose at which suppression of tumorigenic clustering and c-Kit starts” value with MV4-11 is 80 nM.
